Experimental data as given in patent publication US20070128217A1 (priority 2003, published 2007).

Experiments:
[1] = test system: antibodies in sera from SARS patients (sera 1a, 1b, 2, 6, 37, 62, London, SARS-yellow, SARS-green); assay type: binding, human; design: Binding of serum 6 to linear peptides of protein X1 of SARS-CoV Urbani / Binding of serum 37 to linear peptides of protein X1 of SARS-CoV Urbani / Binding of serum 6 to looped/cyclic peptide (PEPSCAN-ELISA) / Binding of serum 37 to looped/cyclic peptide (PEPSCAN-ELISA) / Binding of serum 37 to looped/cyclic peptides of protein X1 of SARS-CoV Urbani / Binding of serum 6 to linear peptides of protein X2 / Binding of serum 37 to linear peptides of protein X2 / Binding of serum 37 to looped/cyclic peptides of protein X2 of SARS-CoV Urbani / Binding of serum 6 to linear peptides of protein M of SARS-CoV Urbani / Binding of serum 37 to linear peptides of protein M of SARS-CoV Urbani / Binding of serum 6 to looped/cyclic peptides of protein M of SARS-CoV Urbani / Binding of serum 37 to looped/cyclic peptides of protein M of SARS-CoV Urbani / Binding of serum 6 to linear peptides of protein X3 of SARS-CoV Urbani / Binding of serum 37 to linear peptides of protein X3 of SARS-CoV Urbani / Binding of serum 37 to looped/cyclic peptides of protein X3 of SARS-CoV Urbani / Binding of serum 6 to linear peptides of protein X4 of SARS-CoV Urbani / Binding of serum 37 to linear peptides of protein X4 of SARS-CoV Urbani / Binding of serum 37 to looped/cyclic peptides of protein X4 of SARS-CoV Urbani / Binding of serum 6 to linear peptides of protein X5 of SARS-CoV Urbani / Binding of serum 37 to linear peptides of protein X5 of SARS-CoV Urbani / Binding of serum 37 to looped/cyclic peptides of protein X5 of SARS-CoV Urbani / Binding of serum 6 to linear peptides of protein N of SARS-CoV Urbani / Binding of serum 37 to linear peptides of protein N of SARS-CoV Urbani / Binding of serum 6 to linear peptide (PEPSCAN-ELISA) / Binding of serum 1a to looped/cyclic peptides of protein N of SARS-CoV Urbani / Binding of serum 1b to looped/cyclic peptides of protein N of SARS-CoV Urbani / Binding of serum 2 to looped/cyclic peptides of protein N of SARS-CoV Urbani / Binding of serum 6 to looped/cyclic peptides of protein N of SARS-CoV Urbani / Binding of serum 37 to looped/cyclic peptides of protein N of SARS-CoV Urbani / Binding of serum 62 to looped/cyclic peptides of protein N of SARS-CoV Urbani / Binding of serum London to looped/cyclic peptides of protein N of SARS-CoV Urbani / Binding of serum SARS-green to looped/cyclic peptides of protein N of SARS-CoV Urbani: unit not given here
[2] = test system: control sera (pooled serum of ten healthy LUMC hospital workers; commercial negative donor pooled serum from the Dutch bloodbank); assay type: binding, human; design: Binding of Control serum LUMC to linear peptides / Binding of Control serum Blood-bank to linear peptides / Binding of Control serum LUMC to looped peptides / Binding of Control Serum Blood-Bank to Looped peptides / Binding of Control serum LUMC to linear peptides of the protein M of SARS-CoV Urbani / Binding of Control serum Blood-bank to linear peptides of the protein M of SARS-CoV Urbani / Binding of Control serum LUMC to looped peptides of the protein M of SARS-CoV Urbani / Binding of Control Serum Blood-Bank to Looped peptides of the protein M of SARS-CoV Urbani: unit not given here
[3] = test system: rabbit serum obtained by immunizing a rabbit with the SARS-CoV strain Frankfurt 1; assay type: binding; design: Binding of a rabbit serum to linear peptides / Binding of a rabbit serum to looped peptides / Rabbit serum linear peptides / Rabbit serum looped peptides / Binding of a rabbit serum to linear peptides of protein N of SARS-CoV Urbani (Rabbit serum linear peptides) / Binding of a rabbit serum to looped/cyclic peptides of protein N of SARS-CoV Urbani (Rabbit serum looped peptides): unit not given here

Row | Sequence | Binding of serum 1a to linear peptides of protein X2 [1] | Binding of serum 1a to looped/cyclic peptides of protein X2 of SARS-CoV Urbani [1] | Binding of serum 1b to linear peptides of protein X2 [1] | Binding of serum 1b to looped/cyclic peptides of protein X2 of SARS-CoV Urbani [1] | Binding of serum 2 to linear peptides of protein X2 [1] | Binding of serum 2 to looped/cyclic peptides of protein X2 of SARS-CoV Urbani [1] | Binding of serum 6 to linear peptides of protein X2 [1] | Binding of serum 6 to looped/cyclic peptides of protein X2 of SARS-CoV Urbani [1] | Binding of serum 37 to linear peptides of protein X2 [1] | Binding of serum 37 to looped/cyclic peptides of protein X2 of SARS-CoV Urbani [1] | Binding of serum 62 to linear peptides of protein X2 [1] | Binding of serum 62 to looped/cyclic peptides of protein X2 of SARS-CoV Urbani [1] | Binding of serum London to linear peptides of protein X2 [1] | Binding of serum London to looped/cyclic peptides of protein X2 of SARS-CoV Urbani [1] | Binding of serum SARS-green to linear peptides of protein X2 [1] | Binding of serum SARS-green to looped/cyclic peptides of protein X2 of SARS-CoV Urbani [1] | Binding of serum SARS-yellow to linear peptides of protein X2 [1] | Binding of serum SARS-yellow to looped/cyclic peptides of protein X2 of SARS-CoV Urbani [1] | Binding of Control Serum Blood-Bank to Looped peptides [2] | Binding of Control serum Blood-bank to linear peptides [2] | other results
1 | LYMAISPKFTTSLSL | 0.7 | 0.6 | 0.5 | 0.5 | 0.5 | 0.5 | 0.3 | 0.5 | 0.6 | 0.5 | 0.6 | 0.7 | 0.3 | 0.6 | 0.5 | 0.4 | 0.6 | 0.5 | 0.7 | 0.6 | Binding of Control serum LUMC to linear peptides [2]: 0.3; Binding of Control serum LUMC to looped peptides [2]: 0.8; Binding of a rabbit serum to linear peptides [3]: 0.3; Binding of a rabbit serum to looped peptides [3]: 0.5
2 | SLYMAISPKFTTSLS | 0.7 | 0.6 | 0.5 | 0.6 | 0.5 | 0.3 | 0.4 | 0.4 | 0.6 | 0.4 | 0.6 | 0.5 | 0.6 | 0.3 | 0.6 | 0.5 | 0.6 | 0.6 | 0.6 | 0.7 | Binding of Control serum LUMC to linear peptides [2]: 0.6; Binding of Control serum LUMC to looped peptides [2]: 0.9; Binding of a rabbit serum to linear peptides [3]: 0.2; Binding of a rabbit serum to looped peptides [3]: 0.3
3 | TRPLMESELVIGAVI | – | – | – | – | – | – | – | – | – | – | – | – | – | – | – | – | – | – | – | – | Binding of serum 1a to linear peptides of protein M of SARS-CoV Urbani [1]: 0.8; Binding of serum 1b to linear peptides of protein M of SARS-CoV Urbani [1]: 0.7; Binding of serum 2 to linear peptides of protein M of SARS-CoV Urbani [1]: 0.7; Binding of serum 6 to linear peptides of protein M of SARS-CoV Urbani [1]: 0.6; Binding of serum 37 to linear peptides of protein M of SARS-CoV Urbani [1]: 0.7; Binding of serum 62 to linear peptides of protein M of SARS-CoV Urbani [1]: 0.6; Binding of serum London to linear peptides of protein M of SARS-CoV Urbani [1]: 0.3; Binding of serum SARS-green to linear peptides of protein M of SARS-CoV Urbani [1]: 0.8; Binding of serum SARS-yellow to linear peptides of protein M of SARS-CoV Urbani [1]: 0.2; Recognition of the peptide by sera of SARS-CoV infected individuals, and form (linear, looped/cyclic) in which it is recognized [1]: recognized in looped/cyclic form; Binding of Control Serum Blood-Bank to Looped peptides of the protein M of SARS-CoV Urbani [2]: 1.1; Binding of Control serum Blood-bank to linear peptides of the protein M of SARS-CoV Urbani [2]: 0.9; Binding of Control serum LUMC to linear peptides of the protein M of SARS-CoV Urbani [2]: 1.0; Binding of Control serum LUMC to looped peptides of the protein M of SARS-CoV Urbani [2]: 1.0; Rabbit serum linear peptides [3]: 0.2; Rabbit serum looped peptides [3]: 0.3
